The results in this text go back to US9388189B2, “Pyrrolotriazinone derivatives as PI3K inhibitors” (ALMIRALL, S.A., priority 2012, dated 2016).

The structures appear in SMILES notation.

By IC50 is commonly meant the concentration needed to halve the response being measured.

PI3Kδ (PI3Kd), sequence (O00329 whole entry, canonical isoform): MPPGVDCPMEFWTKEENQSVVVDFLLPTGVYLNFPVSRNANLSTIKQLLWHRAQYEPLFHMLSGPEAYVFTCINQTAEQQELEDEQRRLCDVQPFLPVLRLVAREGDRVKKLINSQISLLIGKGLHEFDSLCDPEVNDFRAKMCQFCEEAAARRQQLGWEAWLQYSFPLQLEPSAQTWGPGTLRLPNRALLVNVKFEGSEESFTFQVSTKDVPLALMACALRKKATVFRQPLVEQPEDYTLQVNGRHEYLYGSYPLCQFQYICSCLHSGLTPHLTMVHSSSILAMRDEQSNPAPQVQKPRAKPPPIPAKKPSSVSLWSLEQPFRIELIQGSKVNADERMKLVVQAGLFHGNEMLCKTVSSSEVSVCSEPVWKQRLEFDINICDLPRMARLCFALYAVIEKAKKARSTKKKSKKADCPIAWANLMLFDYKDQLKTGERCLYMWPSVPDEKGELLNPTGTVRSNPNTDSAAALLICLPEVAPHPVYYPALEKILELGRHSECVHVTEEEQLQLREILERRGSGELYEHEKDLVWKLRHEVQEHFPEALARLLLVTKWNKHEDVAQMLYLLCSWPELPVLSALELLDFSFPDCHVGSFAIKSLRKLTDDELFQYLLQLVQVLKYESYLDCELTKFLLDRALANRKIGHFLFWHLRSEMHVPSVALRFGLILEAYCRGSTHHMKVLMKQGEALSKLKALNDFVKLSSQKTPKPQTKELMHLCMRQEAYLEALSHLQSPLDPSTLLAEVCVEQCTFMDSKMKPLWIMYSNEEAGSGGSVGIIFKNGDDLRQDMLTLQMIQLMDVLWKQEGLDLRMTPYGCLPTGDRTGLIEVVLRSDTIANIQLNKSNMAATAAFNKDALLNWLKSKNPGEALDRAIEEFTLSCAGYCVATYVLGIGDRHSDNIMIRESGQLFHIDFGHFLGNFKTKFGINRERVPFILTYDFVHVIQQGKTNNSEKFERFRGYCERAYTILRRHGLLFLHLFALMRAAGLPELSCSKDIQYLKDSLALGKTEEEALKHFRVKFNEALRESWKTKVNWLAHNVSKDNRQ
PI3Kδ (PI3Kd), sequence (P27986 whole entry partner, canonical isoform): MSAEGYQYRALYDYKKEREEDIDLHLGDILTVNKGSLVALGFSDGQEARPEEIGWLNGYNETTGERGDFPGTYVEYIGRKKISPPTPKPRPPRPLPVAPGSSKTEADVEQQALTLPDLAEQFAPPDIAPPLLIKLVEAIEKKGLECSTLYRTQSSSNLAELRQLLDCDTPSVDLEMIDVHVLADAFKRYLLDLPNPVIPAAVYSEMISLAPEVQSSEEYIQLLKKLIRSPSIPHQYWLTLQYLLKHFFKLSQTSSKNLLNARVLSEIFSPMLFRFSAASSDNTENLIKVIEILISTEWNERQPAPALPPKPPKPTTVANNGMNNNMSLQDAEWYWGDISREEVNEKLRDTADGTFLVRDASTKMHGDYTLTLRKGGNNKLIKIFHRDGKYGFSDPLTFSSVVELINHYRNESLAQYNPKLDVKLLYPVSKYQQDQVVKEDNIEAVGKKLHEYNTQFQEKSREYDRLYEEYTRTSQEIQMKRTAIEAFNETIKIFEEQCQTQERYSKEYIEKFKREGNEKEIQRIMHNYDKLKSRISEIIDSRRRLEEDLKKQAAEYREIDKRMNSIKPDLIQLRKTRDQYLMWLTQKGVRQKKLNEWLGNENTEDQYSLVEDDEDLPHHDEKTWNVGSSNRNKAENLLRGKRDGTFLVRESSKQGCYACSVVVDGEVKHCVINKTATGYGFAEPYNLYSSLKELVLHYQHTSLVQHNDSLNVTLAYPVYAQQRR

The assay concerns the target PI3Kδ (PI3Kd) (Homo sapiens (Human), UniProt O00329). Briefly: PI3K HTRF enzymatic inhibition assay (cell-free), delta isoform. Particulars: read-out: IC50 PI3Kd HTRF; recombinant PI3K delta, [ATP] 15 μM, [PIP2] 2 μM, 30 min preincubation. Background: TR-FRET usually uses a lanthanide donor and a delayed reading to cut background.
Turning to `N#Cc1c(N)ncnc1N[C@@H](CCSCc1ccccc1)c1nn2cccc2c(=O)n1-c1ccccc1` [Example 19, (S)-4-Amino-6-((3-(benzylthio)-1-(4-oxo-3-phenyl-3,4-dihydropyrrolo[2,1-f][1,2,4]triazin-2-yl)propyl)amino)pyrimidine-5-carbonitrile], the concentration for half-maximal inhibition (IC50) was determined as 95 nM. The same measure for `Cc1ccn2nc([C@H](C)Nc3ncnc4[nH]cc(-c5cc(C(F)(F)F)nn5C)c34)n(-c3ccccc3)c(=O)c12` [Example 151, (S)-5-Methyl-2-(1-((5-(1-methyl-3-(trifluoromethyl)-1H-pyrazol-5-yl)-7H-pyrrolo[2,3-d]pyrimidin-4-yl)amino)ethyl)-3-phenylpyrrolo[2,1-f][1,2,4]triazin-4(3H)-one]: 5 nM. Then `Cc1ccn2nc([C@H](C)Nc3ncnc(N)c3-c3cnc(N)nc3)n(-c3ccccc3)c(=O)c12` [Example 16, (S)-2-(1-((2′,6-Diamino-[5,5′-bipyrimidin]-4-yl)amino)ethyl)-5-methyl-3-phenylpyrrolo[2,1-f][1,2,4]triazin-4(3H)-one], with 5 nM.

Regarding `C[C@H](Nc1ncnc(N)c1-c1nccs1)c1nn2cccc2c(=O)n1-c1ccccc1` [Example 2, (S)-2-(1-((6-Amino-5-(thiazol-2-yl)pyrimidin-4-yl)amino)ethyl)-3-phenylpyrrolo[2,1-f][1,2,4]triazin-4(3H)-one], the IC50 stood at 22 nM. For `Cc1ccn2nc([C@H](C)Nc3ncnc4[nH]cc(-c5cnc6[nH]ccc6c5)c34)n(-c3ccccc3)c(=O)c12` [Example 139, (S)-2-(1-((5-(1H-Pyrrolo[2,3-b]pyridin-5-yl)-7H-pyrrolo[2,3-d]pyrimidin-4-yl)amino)ethyl)-5-methyl-3-phenylpyrrolo[2,1-f][1,2,4]triazin-4(3H)-one], the IC50 was 0.2 nM.

Consider `Cc1ccn2nc([C@H](C)Nc3ncncc3-c3cc(O)cc(F)c3)n(-c3ccccc3)c(=O)c12` [Example 35, (S)-2-(1-((5-(3-Fluoro-5-hydroxyphenyl)pyrimidin-4-yl)amino)ethyl)-5-methyl-3-phenylpyrrolo[2,1-f][1,2,4]triazin-4(3H)-one], for which the IC50 was 4 nM. Then `Cc1ccn2nc([C@H](C)Nc3ncnc4sccc34)n(-c3ccccc3)c(=O)c12` [Example 59, (S)-5-Methyl-3-phenyl-2-(1-(thieno[2,3-d]pyrimidin-4-ylamino)ethyl)pyrrolo[2,1-f][1,2,4]triazin-4(3H)-one], with 10 nM; and `Cc1ccn2nc([C@H](C)Nc3ncnc(N)c3C(=O)Oc3cc(O)cc(NS(C)(=O)=O)c3)n(-c3ccccc3)c(=O)c12` [Example 195, (S)-3-Hydroxy-5-(methylsulfonamido)phenyl 4-amino-6-((1-(5-methyl-4-oxo-3-phenyl-3,4-dihydropyrrolo[2,1-f][1,2,4]triazin-2-yl)ethyl)amino)pyrimidine-5-carboxylate], with 0.2 nM.

Regarding `Cc1ccn2nc([C@H](C)Nc3ncnc4[nH]cc(-c5cccc(S(=O)(=O)N6CCOCC6)c5)c34)n(-c3ccccc3)c(=O)c12` [Example 85, (S)-5-Methyl-2-(1-((5-(3-(morpholinosulfonyl)phenyl)-7H-pyrrolo[2,3-d]pyrimidin-4-yl)amino)ethyl)-3-phenylpyrrolo[2,1-f][1,2,4]triazin-4(3H)-one], the IC50 was determined as 0.3 nM.

With `Cc1ccn2nc([C@H](C)Nc3ncnc4[nH]cc(Cc5cccc(O)c5)c34)n(-c3ccccc3)c(=O)c12` [Example 43, (S)-2-(1-((5-(3-Hydroxybenzyl)-7H-pyrrolo[2,3-d]pyrimidin-4-yl)amino)ethyl)-5-methyl-3-phenylpyrrolo[2,1-f][1,2,4]triazin-4(3H)-one], the IC50 was 3 nM. Then `Cc1ccn2nc([C@H](C)Nc3ncnc4[nH]cc(-c5ccn(-c6cccc(O)c6)n5)c34)n(-c3ccccc3)c(=O)c12` [Example 163, (S)-2-(1-((5-(1-(3-Hydroxyphenyl)-1H-pyrazol-3-yl)-7H-pyrrolo[2,3-d]pyrimidin-4-yl)amino)ethyl)-5-methyl-3-phenylpyrrolo[2,1-f][1,2,4]triazin-4(3H)-one], with 0.2 nM.
